# Source: BindingDB's records for doi:10.1016/S0960-894X(00)80246-2 (1991)
# Test: Binding potency against SP receptor in bovine caudate using [3H]- as radioligand
structure (smiles),measurement,value
Clc1ccccc1CN[C@H]1C2CCN(CC2)[C@H]1C(c1ccccc1)c1ccccc1,IC50,56 nM
c1ccc(CN[C@H]2C3CCN(CC3)[C@H]2C(c2ccccc2)c2ccccc2)cc1,IC50,110 nM
